From ChEMBL document CHEMBL4308859, “Discovery of Novel Central Nervous System Penetrant Metabotropic Glutamate Receptor Subtype 2 (mGlu2) Negative Allosteric Modulators (NAMs) Based on Functionalized Pyrazolo[1,5- a]pyrimidine-5-carboxamide and Thieno[3,2- b]pyridine-5-carboxamide Cores” (J Med Chem, 2018) come the findings set out here.

In general, clearance refers to the rate of elimination divided by the concentration. In general, fraction unbound refers to the share of the substance not bound to proteins or other matrix. High values mean much free substance, low ones little free substance. As a reminder, the half-life is the time in which the quantity being followed falls by half. Low values mean fast loss, high ones slow loss. As usually defined, the IC50 is the midpoint of a concentration-inhibition curve. By Emax is commonly meant the size of the effect at its maximum, as opposed to the concentration needed. For orientation: Cmax means the peak of the concentration-time curve.

Data set [1] is described as follows: Plasma clearance in Sprague-Dawley rat at 0.2 mg/kg, iv administered as cassette dose by LC-MS/MS analysis. The class given is ADME, organism-based.
Data set [2] is described as follows: Fraction unbound in rat brain. The class given is ADME, tissue-based.
Data set [3] is described as follows: Fraction unbound in rat plasma after 4 hrs by equilibrium dialysis method. Format: ADME, cell-free. In general terms: Equilibrium dialysis compares concentrations on both sides of a semipermeable membrane.
Data set [4] is described as follows: Half life in Sprague-Dawley rat at 1 mg/kg, iv by LC-MS/MS analysis. Format: ADME, organism-based. The settings on record: in vivo.
The target in data set [5] is Metabotropic glutamate receptor 4 (Rattus norvegicus, UniProt P31423). In words: Negative allosteric modulation of rat mGlu4 receptor expressed in HEK cells harboring GIRK assessed as reduction in glutamate-induced thallium flux preincubated for 2.3 mins followed by glutamate addition measured after 2.6 mins by BTC-AM-dye based fluorescence assay. Format: cell-based.

Data set [6] concerns the target Metabotropic glutamate receptor 7 (Rattus norvegicus, UniProt P35400). In words: Negative allosteric modulation of rat mGlu7 receptor expressed in HEK cells harboring GIRK assessed as reduction in […]-induced thallium flux preincubated for 2.3 mins followed by […] addition measured after 2.6 mins by BTC-AM-dye based fluorescence assay. Format: cell-based.
Data set [7] deals with Metabotropic glutamate receptor 2 (Rattus norvegicus) (UniProt P31421). In words: Negative allosteric modulation of rat mGlu2R expressed in HEK293 cells co-expressing Galpha15 assessed as decrease in glutamate-induced calcium mobilization at 30 uM preincubated for 2.3 mins followed by glutamate addition and measured after 1.7 mins by Fluo-4-AM dye based fluorescence assay relative to control. Format: functional, cell-based. (In general: Calcium assays in cells follow changes in intracellular calcium, usually with a dye or a luminescent sensor.)

Data set [8] concerns the target Metabotropic glutamate receptor 3 (Rattus norvegicus, UniProt P31422). In words: Negative allosteric modulation of rat mGlu3R expressed in Trex cells co-expressing Galpha15 assessed as decrease in glutamate-induced calcium mobilization preincubated for 2.3 mins followed by glutamate addition and measured after 2.6 mins by Fluo-4-AM dye based fluorescence assay. Format: functional, cell-based.

The target in data set [9] is Metabotropic glutamate receptor 1 (Homo sapiens, UniProt Q13255). As to the kind of experiment: Negative allosteric modulation of human mGlu1R expressed in Trex293 cells assessed as decrease in glutamate-induced calcium mobilization preincubated for 2.3 mins followed by glutamate addition and measured after 2.6 mins by Fluo-4-AM dye based fluorescence assay. The class given is functional, cell-based.

Data set [10] in a line: Half life in Sprague-Dawley rat at 0.2 mg/kg, iv administered as cassette dose by LC-MS/MS analysis. The settings on record: in vivo. Format: ADME, organism-based.
Data set [11] in a line: Volume of distribution at steady state in Sprague-Dawley rat at 1 mg/kg, iv by LC-MS/MS analysis. The class given is ADME, organism-based. The settings on record: in vivo, read-out: Vdss.
Data set [12] has as its target Metabotropic glutamate receptor 2 (Rattus norvegicus, UniProt P31421). As to the kind of experiment: Negative allosteric modulation of rat mGlu2R expressed in HEK293 cells co-expressing Galpha15 assessed as decrease in glutamate-induced calcium mobilization preincubated for 2.3 mins followed by glutamate addition and measured after 1.7 mins by Fluo-4-AM dye based fluorescence assay. Format: functional, cell-based.

Data set [13] is described as follows: Fraction unbound in human plasma after 4 hrs by equilibrium dialysis method. The class given is ADME, cell-free.
Data set [14] in a line: Volume of distribution at steady state in Sprague-Dawley rat at 0.2 mg/kg, iv administered as cassette dose by LC-MS/MS analysis. The class given is ADME, organism-based. The settings on record: in vivo, read-out: Vdss.
In data set [15] the target is Metabotropic glutamate receptor 8 (Rattus norvegicus, UniProt P70579). In words: Negative allosteric modulation of rat mGlu8 receptor expressed in HEK cells harboring GIRK assessed as reduction in glutamate-induced thallium flux preincubated for 2.3 mins followed by glutamate addition measured after 2.6 mins by BTC-AM-dye based fluorescence assay. Format: cell-based.

The nature of data set [16]: Brain to plasma partition coefficient, Kp of the compound in Sprague-Dawley rat at 0.2 mg/kg, iv administered as cassette dose by LC-MS/MS analysis. The class given is ADME, organism-based. The settings on record: brain and plasma.
Data set [17] is described as follows: Unbound brain to plasma ratio in Sprague-Dawley rat at 0.2 mg/kg, iv administered as cassette dose by LC-MS/MS analysis. Format: ADME, organism-based. The following applies: brain and plasma, read-out: K(p,uu,brain).
The target in data set [18] is Metabotropic glutamate receptor 6 (Homo sapiens, UniProt O15303). As to the kind of experiment: Negative allosteric modulation of human mGlu6 receptor expressed in HEK cells harboring GIRK assessed as reduction in glutamate-induced thallium flux preincubated for 2.3 mins followed by glutamate addition measured after 2.6 mins by BTC-AM-dye based fluorescence assay. The class given is cell-based.

Data set [19] is described as follows: Plasma clearance in Sprague-Dawley rat at 1 mg/kg, iv by LC-MS/MS analysis. The class given is ADME, organism-based.
The target in data set [20] is Metabotropic glutamate receptor 5 (Homo sapiens, UniProt P41594). In words: Negative allosteric modulation of human mGlu5R expressed in Trex293 cells assessed as decrease in glutamate-induced calcium mobilization preincubated for 2.3 mins followed by glutamate addition and measured after 2.6 mins by Fluo-4-AM dye based fluorescence assay. The class given is functional, cell-based.

Data set [21] is described as follows: Unbound Cmax in Sprague-Dawley rat brain at 10 mg/kg, ip by LC-MS/MS analysis. Format: ADME, organism-based. The settings on record: in vivo.
A short description of data set [22]: Cmax in Sprague-Dawley rat plasma at 10 mg/kg, ip by LC-MS/MS analysis. The class given is ADME, organism-based. On the set-up: dose 10 mg/kg, route intraperitoneal.
Data set [23] in a line: Ratio of AUC in brain to plasma of Sprague-Dawley rat at 10 mg/kg, ip by LC-MS/MS analysis. Format: ADME, organism-based. The following applies: brain and plasma, read-out: Ratio AUC.
Data set [24] is described as follows: AUC in Sprague-Dawley rat plasma at 10 mg/kg, ip by LC-MS/MS analysis. Format: ADME, organism-based. The settings on record: in vivo.
A short description of data set [25]: Cmax in Sprague-Dawley rat brain at 10 mg/kg, ip by LC-MS/MS analysis. The class given is ADME, organism-based. Set-up: dose 10 mg/kg, route intraperitoneal.
A short description of data set [26]: Unbound AUC in Sprague-Dawley rat brain at 10 mg/kg, ip by LC-MS/MS analysis. The following applies: in vivo. The class given is ADME, organism-based.
Data set [27] is described as follows: AUC in Sprague-Dawley rat brain at 10 mg/kg, ip by LC-MS/MS analysis. Format: ADME, organism-based. The following applies: in vivo.

Chain of Metabotropic glutamate receptor 5 (P41594 whole entry): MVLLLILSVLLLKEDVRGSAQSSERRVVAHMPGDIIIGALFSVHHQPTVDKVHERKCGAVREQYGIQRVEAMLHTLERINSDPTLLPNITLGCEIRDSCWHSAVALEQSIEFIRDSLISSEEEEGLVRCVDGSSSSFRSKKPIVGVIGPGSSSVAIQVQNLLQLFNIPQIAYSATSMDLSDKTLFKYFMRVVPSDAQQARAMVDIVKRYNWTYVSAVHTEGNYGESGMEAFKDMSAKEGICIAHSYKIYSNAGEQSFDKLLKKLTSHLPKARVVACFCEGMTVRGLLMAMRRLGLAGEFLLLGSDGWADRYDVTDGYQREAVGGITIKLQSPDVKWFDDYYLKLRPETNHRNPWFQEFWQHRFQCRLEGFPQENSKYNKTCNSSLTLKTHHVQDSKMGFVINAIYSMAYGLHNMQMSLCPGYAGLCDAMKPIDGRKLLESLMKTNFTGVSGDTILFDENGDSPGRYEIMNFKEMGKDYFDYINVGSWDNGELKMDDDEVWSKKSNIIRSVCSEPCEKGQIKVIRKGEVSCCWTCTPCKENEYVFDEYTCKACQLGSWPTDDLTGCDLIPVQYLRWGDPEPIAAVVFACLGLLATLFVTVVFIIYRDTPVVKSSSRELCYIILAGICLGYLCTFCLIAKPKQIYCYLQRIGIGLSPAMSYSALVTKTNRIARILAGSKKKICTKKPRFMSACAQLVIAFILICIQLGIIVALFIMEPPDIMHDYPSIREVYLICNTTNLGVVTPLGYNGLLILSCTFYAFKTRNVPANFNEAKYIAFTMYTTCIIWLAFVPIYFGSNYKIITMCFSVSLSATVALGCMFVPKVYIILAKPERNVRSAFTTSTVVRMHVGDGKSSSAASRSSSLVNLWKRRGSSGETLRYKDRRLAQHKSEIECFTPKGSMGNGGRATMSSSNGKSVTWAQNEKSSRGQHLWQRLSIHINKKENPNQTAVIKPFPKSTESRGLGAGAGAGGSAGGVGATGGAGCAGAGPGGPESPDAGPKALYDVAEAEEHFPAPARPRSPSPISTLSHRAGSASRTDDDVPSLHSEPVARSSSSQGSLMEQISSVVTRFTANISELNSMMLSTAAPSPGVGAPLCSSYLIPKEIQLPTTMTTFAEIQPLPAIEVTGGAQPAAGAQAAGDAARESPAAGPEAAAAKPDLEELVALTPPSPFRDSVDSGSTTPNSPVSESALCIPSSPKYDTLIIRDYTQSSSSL
Chain of Metabotropic glutamate receptor 7 (P35400 whole entry): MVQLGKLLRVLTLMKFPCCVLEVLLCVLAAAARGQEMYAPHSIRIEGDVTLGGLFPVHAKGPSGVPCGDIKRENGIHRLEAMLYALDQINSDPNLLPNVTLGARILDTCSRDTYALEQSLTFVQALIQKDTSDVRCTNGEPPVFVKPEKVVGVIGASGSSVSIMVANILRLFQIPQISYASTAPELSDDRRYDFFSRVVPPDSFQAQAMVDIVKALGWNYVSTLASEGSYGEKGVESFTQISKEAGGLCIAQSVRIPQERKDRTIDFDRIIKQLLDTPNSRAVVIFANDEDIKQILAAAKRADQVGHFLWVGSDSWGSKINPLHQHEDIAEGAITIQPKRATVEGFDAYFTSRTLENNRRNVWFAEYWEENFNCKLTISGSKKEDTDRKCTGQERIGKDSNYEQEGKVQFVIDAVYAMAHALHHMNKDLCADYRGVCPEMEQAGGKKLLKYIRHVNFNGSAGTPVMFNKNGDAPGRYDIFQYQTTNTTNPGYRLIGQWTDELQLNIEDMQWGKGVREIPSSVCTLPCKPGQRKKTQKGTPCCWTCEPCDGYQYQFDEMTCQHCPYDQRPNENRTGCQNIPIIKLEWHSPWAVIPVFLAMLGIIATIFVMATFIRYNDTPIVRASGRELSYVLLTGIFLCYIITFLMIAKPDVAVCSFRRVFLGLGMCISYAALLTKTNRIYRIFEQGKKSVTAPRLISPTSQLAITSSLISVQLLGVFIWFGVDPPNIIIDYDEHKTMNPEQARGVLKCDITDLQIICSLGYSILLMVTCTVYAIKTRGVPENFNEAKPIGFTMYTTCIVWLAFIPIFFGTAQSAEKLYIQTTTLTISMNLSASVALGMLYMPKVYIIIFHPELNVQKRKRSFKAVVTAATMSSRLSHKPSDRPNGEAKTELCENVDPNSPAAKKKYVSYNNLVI
Chain of Metabotropic glutamate receptor 8 (P70579 whole entry): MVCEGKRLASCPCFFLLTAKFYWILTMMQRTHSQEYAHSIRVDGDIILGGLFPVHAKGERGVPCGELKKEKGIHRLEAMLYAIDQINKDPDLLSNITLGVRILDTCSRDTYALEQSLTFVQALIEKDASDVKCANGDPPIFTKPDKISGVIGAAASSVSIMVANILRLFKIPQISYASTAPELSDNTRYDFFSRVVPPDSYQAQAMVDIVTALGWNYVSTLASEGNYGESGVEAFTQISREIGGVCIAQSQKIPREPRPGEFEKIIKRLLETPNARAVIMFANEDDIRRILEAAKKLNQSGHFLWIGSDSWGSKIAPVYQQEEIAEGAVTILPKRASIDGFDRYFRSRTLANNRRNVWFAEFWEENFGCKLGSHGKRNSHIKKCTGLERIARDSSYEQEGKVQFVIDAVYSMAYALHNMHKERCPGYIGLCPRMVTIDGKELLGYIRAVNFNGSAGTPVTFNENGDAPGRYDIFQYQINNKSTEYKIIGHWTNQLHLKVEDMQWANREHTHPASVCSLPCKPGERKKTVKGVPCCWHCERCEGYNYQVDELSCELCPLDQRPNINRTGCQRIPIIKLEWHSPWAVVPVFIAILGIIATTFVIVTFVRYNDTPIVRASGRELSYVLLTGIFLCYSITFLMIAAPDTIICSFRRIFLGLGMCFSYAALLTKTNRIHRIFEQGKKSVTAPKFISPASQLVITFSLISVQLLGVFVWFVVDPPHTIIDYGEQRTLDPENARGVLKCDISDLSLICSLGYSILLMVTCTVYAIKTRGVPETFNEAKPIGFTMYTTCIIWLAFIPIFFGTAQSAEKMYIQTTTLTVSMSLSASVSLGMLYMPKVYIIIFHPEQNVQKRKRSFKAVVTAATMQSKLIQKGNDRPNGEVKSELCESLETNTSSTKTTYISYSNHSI
Chain of Metabotropic glutamate receptor 1 (Q13255 whole entry): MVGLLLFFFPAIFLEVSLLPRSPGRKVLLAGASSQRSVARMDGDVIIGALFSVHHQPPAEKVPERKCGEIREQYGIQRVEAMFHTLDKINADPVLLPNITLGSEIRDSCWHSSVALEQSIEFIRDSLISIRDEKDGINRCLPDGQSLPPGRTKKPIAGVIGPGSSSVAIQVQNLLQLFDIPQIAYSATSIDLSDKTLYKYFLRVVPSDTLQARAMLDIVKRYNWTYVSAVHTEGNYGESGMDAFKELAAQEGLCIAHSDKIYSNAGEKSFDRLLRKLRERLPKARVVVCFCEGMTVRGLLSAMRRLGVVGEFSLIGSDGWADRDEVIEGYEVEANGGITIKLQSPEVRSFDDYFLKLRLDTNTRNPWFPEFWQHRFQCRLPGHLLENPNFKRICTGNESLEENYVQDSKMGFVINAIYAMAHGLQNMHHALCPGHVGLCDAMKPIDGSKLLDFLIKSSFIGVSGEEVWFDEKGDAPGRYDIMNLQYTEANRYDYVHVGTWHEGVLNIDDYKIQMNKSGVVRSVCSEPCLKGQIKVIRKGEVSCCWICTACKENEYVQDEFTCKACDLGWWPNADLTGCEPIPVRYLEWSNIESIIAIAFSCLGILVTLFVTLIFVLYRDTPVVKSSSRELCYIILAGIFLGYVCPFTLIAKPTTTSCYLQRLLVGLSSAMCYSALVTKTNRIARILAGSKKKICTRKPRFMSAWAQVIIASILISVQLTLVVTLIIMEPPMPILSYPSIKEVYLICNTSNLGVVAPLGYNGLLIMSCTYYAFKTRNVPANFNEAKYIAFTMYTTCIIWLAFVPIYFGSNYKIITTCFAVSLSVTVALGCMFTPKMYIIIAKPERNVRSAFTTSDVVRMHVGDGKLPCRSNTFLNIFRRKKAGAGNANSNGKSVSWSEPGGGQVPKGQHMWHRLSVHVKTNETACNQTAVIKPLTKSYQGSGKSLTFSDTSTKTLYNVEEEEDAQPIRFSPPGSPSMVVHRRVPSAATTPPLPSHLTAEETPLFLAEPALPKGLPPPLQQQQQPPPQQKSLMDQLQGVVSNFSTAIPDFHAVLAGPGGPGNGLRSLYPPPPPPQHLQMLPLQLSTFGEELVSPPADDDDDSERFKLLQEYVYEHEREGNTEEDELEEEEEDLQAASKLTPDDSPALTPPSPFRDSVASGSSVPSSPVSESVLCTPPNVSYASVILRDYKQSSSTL
Chain of Metabotropic glutamate receptor 2 (Rattus norvegicus) (P31421 19-872 limits assumed): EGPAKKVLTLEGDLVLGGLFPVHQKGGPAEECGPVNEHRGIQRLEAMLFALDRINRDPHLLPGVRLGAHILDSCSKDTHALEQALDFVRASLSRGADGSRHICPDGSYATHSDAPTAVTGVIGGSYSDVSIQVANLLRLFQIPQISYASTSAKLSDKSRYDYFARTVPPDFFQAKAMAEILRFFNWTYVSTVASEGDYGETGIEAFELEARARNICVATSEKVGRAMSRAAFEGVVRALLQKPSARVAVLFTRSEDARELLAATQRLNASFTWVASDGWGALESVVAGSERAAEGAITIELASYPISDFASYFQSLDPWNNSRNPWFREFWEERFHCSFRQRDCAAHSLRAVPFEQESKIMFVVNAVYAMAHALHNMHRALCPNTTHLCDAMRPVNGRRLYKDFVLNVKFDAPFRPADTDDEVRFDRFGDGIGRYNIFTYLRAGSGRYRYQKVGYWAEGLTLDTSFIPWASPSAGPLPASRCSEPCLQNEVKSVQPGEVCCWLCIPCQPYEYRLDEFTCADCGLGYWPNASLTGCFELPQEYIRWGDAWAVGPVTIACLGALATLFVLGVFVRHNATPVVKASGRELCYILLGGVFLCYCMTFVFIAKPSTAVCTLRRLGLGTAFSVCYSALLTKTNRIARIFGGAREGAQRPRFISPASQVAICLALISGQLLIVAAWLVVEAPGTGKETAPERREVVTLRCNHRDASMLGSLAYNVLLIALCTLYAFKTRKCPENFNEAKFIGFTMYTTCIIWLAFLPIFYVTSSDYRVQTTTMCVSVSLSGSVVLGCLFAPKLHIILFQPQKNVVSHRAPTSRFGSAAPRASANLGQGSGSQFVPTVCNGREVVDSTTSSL

As for `NC(=O)c1cc(-c2ccc(F)cc2)n2nc(COc3ccnc(C(F)(F)F)c3)cc2n1`, the clearance in data set [1] turned out to be 10 mL/min/kg; in data set [19] it was 16.4 mL/min/kg. Moreover, the fraction unbound in data set [2] amounted to 0.007. In addition, the fraction unbound at 4 h came out at 0.03 in [3] and 0.01 in data set [13]. In addition, the half-life was 5.53 h in [4] and 4.28 h in data set [10] (Sprague-Dawley). Moreover, the IC50 is more than 30 µM in [5]; more than 30 µM in [6]; more than 30 µM in data set [8]; more than 30 µM in [9]; 0.794 µM in data set [12]; more than 30 µM in data set [15]. Further, the IC50 in [18] and in [20] was more than 30 µM throughout. Besides, the Emax in [7] is 2.4%. The results for the Vd in data set [11] and in data set [14] were 6.59 L/kg and 3.31 L/kg, respectively. Further, in [16], the Kp came out at 4.04. Besides, the Kp uu in data set [17] amounted to 0.86.

The molecule `C[C@@H]1CN(Cc2cc3nc(C(N)=O)cc(-c4ccc(F)cc4)c3s2)C[C@H](C)O1` registered a fCmax in data set [21] of 30.4 nM. The same molecule showed a fraction unbound in [2] of 0.005. Also, the free fraction (fraction unbound) at 4 h in data set [3] was 0.05; in [13] it was 0.01. Besides, the Cmax in [22] was 1.07 µM; in data set [25], 6.09 µM. Besides, the IC50 in data set [5] was more than 30 µM; in data set [6], more than 30 µM; in [8], more than 30 µM; in [9], more than 30 µM; in data set [12] it was 0.55 µM; in data set [15] it was more than 30 µM. Moreover, the IC50 in data set [18] and in data set [20] was more than 30 µM each time. Besides, the Kp in [23] and in data set [16] was 5.67 in each case. The AUC came out at 5.81 µM in data set [24] and 32.9 µM in data set [27]. In data set [7], the Emax turned out to be 2.3%. For the same molecule, the t1/2 in data set [10] turned out to be 1.5 h. In data set [26], this molecule showed a fAUC of 165 nM. In addition, the Kp uu in data set [17] was 0.52.
